# According to patent US20240010684A1, “MASP INHIBITORY COMPOUNDS AND USES THEREOF” (BAYER AKTIENGESELLSCHAFT, priority 2020, published 2024):
# pIC50: −log10 of the molar value. Where two headings read alike, the source gives them in different places. *1 amine or outer side, *2 acyl side, *3 side chain or, on linkers, in order; H or OH if unused. Where a SMILES comes first, the peptide text is derived from it. Bridges are numbered along the chain shown (N, C = ends). [ ]: non-standard residue; d: D form. Oic = O=C(O)[C@@H]1C[C@@H]2CCCC[C@@H]2N1; X5 = NCCC[C@H](N[*:1])C(=O)NC(=O)[*:2]; Arg(Me) = CNC(=N)NCCC[C@H](N)C(=O)O; tBuAla = CC(C)(C)C[C@H](N)C(=O)O; Pen = CC(C)(S)[C@H](N)C(=O)O; Dab = NCC[C@H](N)C(=O)O; Dap = NC[C@H](N)C(=O)O
# Assays:
# human MASP2 = human MASP2 (Homo sapiens (Human), UniProt O00187); experiment: Biochemical human MASP2 assay (FRET substrate); conditions: Average IC50; recombinant human MASP2; read-out: human MASP2 IC50
# Outline: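 IC50 came from % inhibition across compound concentrations, with fluorescence (ex 340 nm, em 490 nm) read after 60-120 min at 32 C. Substrate was a DABCYL FRET peptide, added as a 60 μM solution, cleaved by HEK293-expressed, Ni-NTA-purified mature recombinant human MASP2.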
# [1] = test system: Human C3-DEPOSITION SERUM; experiment: C3 deposition assay, human serum on mannan-coated plates; assay type: biochemical
# Experimental: 3. C3 Deposition Assay (Human, Rat, Mouse, Dog, Pig))
# The C3 deposition assay was conducted essentially as described (reference). Multiwell plates (Greiner-Nunc 384 Maxi Sorp #464718) were coated over night with Mannan from Saccharomyces cerevisiae (Sigma M7504, 10 μg/mL in 0.05 M carbonate-bicarbonate buffer, pH 9.6) at 4° C. Wells were washed three times with TBS and subsequently incubated for 2 hours with 50 μL of 1% bovine serum albumin (BSA) in Tris-buffered saline (TBS) at 37° C. in order to block non-specific binding. After this step and each of the following incubation steps wells were washed three times with C3 wash buffer (TBS; 0.05% Tween 20; 5 mM CaCl2). […] When appropriately developed the color reaction was stopped by addition of 25 μL of stop solution (Sigma S5814) and quantified on a photometer by measuring absorption at a wavelength of 450 nm. Antibodies were diluted in C3 wash buffer supplemented with 0.5% BSA.
# human MASP1 = human MASP1 (Homo sapiens (Human), UniProt P48740); experiment: Biochemical human MASP1 assay (FRET substrate); conditions: Average IC50; recombinant human MASP1; read-out: human MASP1 IC50
# Outline: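 IC50 derived from % inhibition versus compound concentration, with fluorescence increase read at 320/420 nm after 60-120 min at 32 C. Enzyme: HEK293-secreted, His-tagged human MASP1 fragment 297-699 at 20 nM in HEPES pH 8,0 buffer with NaCl, CHAPS, glutathione; substrate ABZ-peptide-Lys(Dnp)-NH2 added as 20 μM solution.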
# rat MASP1 = rat MASP1 (Rattus norvegicus (Rat), UniProt Q8CHN8); experiment: Biochemical rat MASP1 assay (FRET substrate); conditions: Average IC50; recombinant rat MASP1; read-out: rat MASP1 IC50
# Description: A truncated cDNA sequence of rat MASP1encoding the fragment corresponding to the amino acids 302-704 with a C-terminal His Tag and N-terminal Ig-kappa secretion signal (SEQ ID No: 4) was subcloned into the mammalian expression vector pcDNA3.1 (Invitrogen).
# (§1) The MASP1 or MASP2 expression vectors were transfected into the HEK293 (ATCC No. CRL-1573) cell line using Lipofectamine LTX® Reagent (Thermo-Fischer), as described by the manufacturer. The mature form of the recombinant rat MASP1 and MASP2 proteases were secreted into the culture medium. The MASP1 and MASP2 proteins were purified from the conditioned media by affinity chromatography on Ni-NTA Superflow resin (Qiagen) as described by the manufacturer.
# 4.2 Biochemical Rat MASP1 Assay.
# Recombinant rat MASP1 enzyme produced in the HEK 293 cells was diluted in the reaction buffer (50 mM HEPES pH 8,0; 100 mM NaCl; 0,01% CHAPS; 0.5 mM Gluthathione) to the concentration of 4 nM and 25 μl was transferred into each single well of 384-well white microtiter plate (Greiner Bio One 781075). 1 μl of the inhibitor compound solution (dissolved in DMSO, at the corresponding concentration) or pure DMSO as a control was added to the same wells. The enzymatic reaction was initiated by addition of 25 μl of 40 μM solution of the FRET substrate Dabcyl-[…]-Glu(Edans)-NH2; (Dabcyl-4-((4-(dimethylamino)phenyl)azo)benzoic acid; Edans-5-[(2-Aminoethyl) amino]naphthalene-1-sulfonyl; custom synthesis by Jerini Peptide Technologies, Berlin) in the reaction buffer. The microtiter plate was incubated for 60-120 min at the temperature of 32 C. The increase of fluorescence intensity was measured in appropriate fluorescence plate reader (e.g. TECAN Ultra) using excitation wavelength of 340 nm and emission wavelength of 490 nm. IC50 values were calculated from percentage of inhibition of rat […] activity as a function of test compound concentration.
# rat MASP2 = rat MASP2 (Rattus norvegicus (Rat), UniProt Q9JJS8); experiment: Biochemical rat MASP2 assay (FRET substrate); conditions: Average IC50; recombinant rat MASP2; read-out: rat MASP2 IC50
# Description: as §1, with “The mature form of the recombinant rat MASP1 and MASP2 proteases were secreted into the culture medium.” left out, “M[…]” for “MASP2 proteins”
# [2] = Average IC50, read-out: Human C3-DEPOSITION SERUM IC50
# human MASP1, sequence (P48740 other isoform, or with tags, fused parts or gaps): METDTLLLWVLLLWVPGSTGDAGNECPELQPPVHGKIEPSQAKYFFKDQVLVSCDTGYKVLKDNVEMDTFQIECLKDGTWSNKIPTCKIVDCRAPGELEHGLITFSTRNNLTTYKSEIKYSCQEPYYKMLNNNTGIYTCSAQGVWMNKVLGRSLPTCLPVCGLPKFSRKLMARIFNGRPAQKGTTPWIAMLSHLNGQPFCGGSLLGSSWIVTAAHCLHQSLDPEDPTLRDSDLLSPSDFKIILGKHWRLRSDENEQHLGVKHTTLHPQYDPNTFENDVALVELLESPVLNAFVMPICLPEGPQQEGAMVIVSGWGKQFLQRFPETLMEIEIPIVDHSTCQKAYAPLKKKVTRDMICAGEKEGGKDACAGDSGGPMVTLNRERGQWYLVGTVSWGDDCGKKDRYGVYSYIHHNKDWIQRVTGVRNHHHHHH
# human MASP2, sequence (O00187 other isoform, or with tags, fused parts or gaps): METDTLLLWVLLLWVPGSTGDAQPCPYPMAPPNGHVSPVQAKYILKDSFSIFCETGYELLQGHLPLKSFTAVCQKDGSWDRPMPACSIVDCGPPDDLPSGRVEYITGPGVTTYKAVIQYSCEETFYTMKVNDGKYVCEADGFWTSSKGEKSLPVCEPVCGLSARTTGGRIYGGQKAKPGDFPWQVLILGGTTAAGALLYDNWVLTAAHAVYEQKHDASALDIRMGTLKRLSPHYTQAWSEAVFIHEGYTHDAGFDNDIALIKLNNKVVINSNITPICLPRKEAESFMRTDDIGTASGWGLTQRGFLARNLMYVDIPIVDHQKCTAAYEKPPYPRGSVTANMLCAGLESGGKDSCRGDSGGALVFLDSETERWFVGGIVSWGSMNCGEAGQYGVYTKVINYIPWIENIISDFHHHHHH
# rat MASP1, sequence (Q8CHN8 other isoform, or with tags, fused parts or gaps): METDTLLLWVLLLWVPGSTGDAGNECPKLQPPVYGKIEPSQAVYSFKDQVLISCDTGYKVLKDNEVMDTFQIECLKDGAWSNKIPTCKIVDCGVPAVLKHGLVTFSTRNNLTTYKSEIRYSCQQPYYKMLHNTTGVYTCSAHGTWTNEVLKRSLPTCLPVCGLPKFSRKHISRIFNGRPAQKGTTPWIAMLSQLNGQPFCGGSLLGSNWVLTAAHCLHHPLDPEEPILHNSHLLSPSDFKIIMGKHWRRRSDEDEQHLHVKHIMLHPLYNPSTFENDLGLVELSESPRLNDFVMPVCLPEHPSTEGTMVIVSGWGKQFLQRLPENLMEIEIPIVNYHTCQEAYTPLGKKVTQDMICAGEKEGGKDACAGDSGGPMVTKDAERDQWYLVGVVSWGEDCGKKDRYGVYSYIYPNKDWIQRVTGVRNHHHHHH
# rat MASP2, sequence (Q9JJS8 other isoform, or with tags, fused parts or gaps): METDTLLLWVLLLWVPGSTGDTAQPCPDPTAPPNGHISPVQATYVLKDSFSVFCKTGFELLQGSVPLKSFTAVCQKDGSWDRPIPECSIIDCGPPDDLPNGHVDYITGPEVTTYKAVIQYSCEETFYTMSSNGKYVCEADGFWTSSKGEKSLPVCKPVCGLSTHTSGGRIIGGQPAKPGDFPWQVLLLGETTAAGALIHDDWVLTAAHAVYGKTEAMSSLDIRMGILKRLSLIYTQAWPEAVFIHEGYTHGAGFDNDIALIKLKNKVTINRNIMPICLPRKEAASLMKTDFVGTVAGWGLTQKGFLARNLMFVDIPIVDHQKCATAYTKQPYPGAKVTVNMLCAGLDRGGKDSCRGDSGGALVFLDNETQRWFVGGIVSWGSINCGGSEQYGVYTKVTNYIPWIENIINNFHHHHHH
pIC50 (human MASP2),"pIC50 [1, 2]",pIC50 (human MASP1),pIC50 (rat MASP2),Compound,pIC50 (rat MASP1),"pIC50 ([1]; Average IC50, read-out: Human C3-[…] IC50)"
6.12,7.25,8.30,–,CC[C@H](C)[C@@H]1NC(=O)[C@H](CN)NC(=O)[C@H](CN)NC(=O)[C@@H]2CCCN2C(=O)[C@H]([C@@H](C)CC)NC(=O)[C@H]2NC(=O)[C@H]([C@@H](C)CC)NC(=O)[C@@H]3CCCN3C(=O)[C@@H]3CCCN3C(=O)[C@H](CC(C)(C)C)NC(=O)[C@H](CO)NC(=O)[C@H](CCCNC(=N)N)NC(=O)[C@H](CO)NC(=O)[C@H](CSSC2(C)C)NC1=O [Example 97],–,–
6.40,6.99,7.64,–,CC[C@H](C)[C@@H]1NC(=O)NC(=O)[C@H](CCCN)NC(=O)[C@@H]2CCCN2C(=O)[C@H]([C@@H](C)CC)NC(=O)[C@H]2NC(=O)[C@H]([C@@H](C)CC)NC(=O)[C@@H]3CCCN3C(=O)[C@@H]3CCCN3C(=O)[C@H](CC(C)(C)C)NC(=O)[C@H](CO)NC(=O)[C@H](CCCNC(=N)NC)NC(=O)[C@H](CO)NC(=O)[C@H](CSSC2(C)C)NC1=O [Example 96] (cyclo([Arg(Me)]S[tBuAla]PPI[Pen]IP[X5]ICS); disulfide 7-12),–,–
–,–,5.09,6.90,"CC[C@H](C)[C@@H]1NC(=O)[C@@H]2CSSC[C@H](NC(=O)[C@H](Cc3ccc(O)cc3)NC(=O)CNC(=O)[C@H](CC(=O)O)NC(=O)[C@@H]3CCCN3C1=O)C(=O)N[C@@H](CO)C(=O)N[C@@H](CCCNC(=N)N)C(=O)N[C@@H](CO)C(=O)N[C@@H](Cc1ccc(O)cc1)C(=O)N1CCC[C@H]1C(=O)N1CCC[C@H]1C(=O)N[C@@H](C(C)C)C(=O)N2 [Ref. No 8, reference compound] (cyclo(CIPDGYCSRSYPPV); disulfide 1-7)",6.00,–
6.00,7.33,7.57,–,CC[C@H](C)[C@@H]1NC(=O)[C@H](CN)NC(=O)[C@@H](N)CNC(=O)[C@@H]2CCCN2C(=O)[C@H]([C@@H](C)CC)NC(=O)[C@H]2NC(=O)[C@H]([C@@H](C)CC)NC(=O)[C@@H]3C[C@@H]4CCCC[C@@H]4N3C(=O)[C@@H]3CCCN3C(=O)[C@H](CC(C)C)NC(=O)[C@H](CO)NC(=O)[C@H](CCCNC(=N)N)NC(=O)[C@H](CO)NC(=O)[C@H](CSSC2(C)C)NC1=O [Example 86] (H-[Dap][Dap]ICSRSLP[Oic]I[Pen]IP; lactam 1-C; disulfide 4-12),–,–
6.68,6.64,7.89,–,"CC[C@H](C)[C@@H]1NC(=O)[C@H](C)NC(=O)[C@@H](N)CSSC[C@@H](C(N)=O)NC(=O)[C@H](CC(=O)O)NC(=O)[C@@H]2CCCN2C(=O)[C@H]([C@@H](C)CC)NC(=O)[C@H]2NC(=O)[C@H]([C@@H](C)CC)NC(=O)[C@@H]3CCCN3C(=O)[C@@H]3CCCN3C(=O)[C@H](CC(C)(C)C)NC(=O)[C@H](CO)NC(=O)[C@H](CCCNC(=N)N)NC(=O)[C@H](CO)NC(=O)[C@H](CSSC2(C)C)NC1=O [Example 50] (H-CAICSRS[tBuAla]PPI[Pen]IPDC-NH2; disulfide 1-16, 4-12)",–,–
5.96,6.25,7.07,–,"CC[C@H](C)[C@@H]1NC(=O)[C@H](CCN)NC(=O)[C@@H]2CCCN2C(=O)[C@H]([C@@H](C)CC)NC(=O)[C@H]2NC(=O)[C@H]([C@@H](C)CC)NC(=O)[C@@H]3CCCN3C(=O)[C@@H]3CCCN3C(=O)[C@H](CC(C)(C)C)NC(=O)[C@H](CO)NC(=O)[C@H](CCCNC(=N)N)NC(=O)[C@H](CO)NC(=O)[C@H](CSSC2(C)C)NC1=O [Example 56, N-{3-[(6S,9S,12S,15S,18R,21S,24S,26aS,32S,35R,38S,40aS,45aS)-24-(2-aminoethyl)-21,32,38-tri[(2S)-butan-2-yl]-6-(2,2-dimethylpropyl)-9,15-bis(hydroxymethyl)-46,46-dimethyl-5,8,11,14,17,20,23,26,31,34,37,40,45-tridecaoxotetratetracontahydro-1H-18,35-(methanodithiomethano)tripyrrolo[1,2-a:1′,2′-d:1″,2″-p]-[1,4,7,10,13,16,19,22,25,28,31,34,37]tridecaazacyclononatriacontin-12-yl]propyl}guanidine] (cyclo(CSRS[tBuAla]PPI[Pen]IP[Dab]I); disulfide 1-9)",–,–
6.96,8.06,8.06,–,CC[C@H](C)[C@@H]1NC(=O)CCCNC(=O)[C@H](CC(=O)O)NC(=O)[C@@H]2CCCN2C(=O)[C@H]([C@@H](C)CC)NC(=O)[C@@H]2CSSC[C@H](NC1=O)C(=O)N[C@@H](CO)C(=O)N[C@@H](CCCNC(=N)N)C(=O)N[C@@H](CO)C(=O)N[C@@H](CC(C)(C)C)C(=O)N1CCC[C@H]1C(=O)N1CCC[C@H]1C(=O)N[C@@H]([C@@H](C)CC)C(=O)N2C [Example 36],–,–

Compound,pIC50 (human MASP2),"pIC50 [1, 2]",pIC50 (human MASP1),pIC50 (rat MASP2),pIC50 (rat MASP1),"pIC50 ([1]; Average IC50, read-out: Human C3-[…] IC50)"
"CC[C@H](C)[C@@H]1NC(=O)[C@@H]2CCCN2C(=O)[C@H]([C@@H](C)CC)NC(=O)[C@H]2NC(=O)[C@H]([C@@H](C)CC)NC(=O)[C@@H]3CCCN3C(=O)[C@@H]3CCCN3C(=O)[C@H](CC(C)(C)C)NC(=O)[C@H](CO)NC(=O)[C@H](CCCNC(=N)N)NC(=O)[C@H](CO)NC(=O)[C@H](CSSC2(C)C)NC1=O [Example 88, N-{3-[(6S,9S,12S,15S,18R,21S,23aS,29S,32R,35S,37aS,42aS)-21,29,35-tri[(2S)-butan-2-yl]-6-(2,2-dimethylpropyl)-9,15-bis(hydroxymethyl)-43,43-dimethyl-5,8,11,14,17,20,23,28,31,34,37,42-dodecaoxotetracontahydro-1H,5H-18,32-(methanodithiomethano)tripyrrolo[1,2-a:1′,2′-d:1″,2″-p][1,4,7,10,13,16,19,22,25,28,31,34]-dodecaazacyclohexatriacontin-12-yl]propyl}guanidine hydrogen chloride] (cyclo(CSRS[tBuAla]PPI[Pen]IPI); disulfide 1-9)",6.00,4.30,6.00,–,–,–
"CC[C@H](C)[C@@H]1NC(=O)[C@@H]2CCCN2C(=O)[C@@H]2CCCN2C(=O)[C@H](CC(C)(C)C)NC(=O)[C@H](CO)NC(=O)[C@H](CCCNC(=N)N)NC(=O)[C@H](CO)NC(=O)[C@@H]2CSSC(C)(C)[C@H](NC1=O)C(=O)N[C@@H]([C@@H](C)CC)C(=O)N1CCC[C@H]1C(=O)NCCCCCC(=O)NC[C@H]1CC[C@@H](CC1)C(=O)N[C@@H]([C@@H](C)CC)C(=O)N2 [Example 59, N-{3-[(1R,4S,7S,13S,19S,22S,25S,28S,31R,34S,37S,40S,51S,57S)-4,34,57-tri[(2S)-butan-2-yl]-19-(2,2-dimethylpropyl)-22,28-bis(hydroxymethyl)-60,60-dimethyl-3,6,12,18,21,24,27,30,33,36,43,50,56,59-tetradecaoxo-61,62-dithia-2,5,11,17,20,23,26,29,32,35,42,49,55,58-tetradecaazahexacyclo[29.28.4.2^37,400.0^7,110.0^13,170.0^51,55]pentahexacontan-25-yl]propyl}guanidine]",8.24,–,7.96,–,7.31,6.75
